Source: patent publication US20230085307A1, “PYRIDAZINONE COMPOUND AND HERBICIDE” (NISSAN CHEMICAL CORPORATION, priority 2019, published 2023)

Key:
late watergrass [1] = experiment: Test Example 1: herbicidal activity, application before weed generation under submerged conditions (Table 16, symbol A); format: in vivo, late watergrass (Echinochloa oryzicola); settings: amount of applied herbicide 320 g/ha
How it was run: (§1)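 Alluvial soil was flooded to 4 cm depth, weed seeds were sown mixed and 2.5-leaf rice seedlings were transplanted. On sowing day, the compound's emulsion, diluted in water to a set dose, was applied to the water surface. Plants grew at 25–30 °C and were scored 0–5 after three weeks.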

Japanese bulrush [2] = experiment: Test Example 1: herbicidal activity, application before weed generation under submerged conditions (Table 16, symbol B); format: in vivo, Japanese bulrush (Schoenoplectus juncoides); settings: amount of applied herbicide 320 g/ha
How it was run: as §1

oval-leafed pondweed [3] = experiment: Test Example 1: herbicidal activity, application before weed generation under submerged conditions (Table 16, symbol C); format: in vivo, oval-leafed pondweed (Monochoria vaginalis); settings: amount of applied herbicide 320 g/ha
How it was run: as §1

late watergrass [4] = experiment: Test Example 2: herbicidal activity, application during weed generation under submerged conditions (Table 17, symbol A); format: in vivo, late watergrass (Echinochloa oryzicola); settings: AAH 320 g/ha; application during weed generation, submerged conditions
How it was run: (§2)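 In this pot test, flooded alluvial soil (water depth 4 cm) holds all three species sown as a mixture. Once seedlings have one to two leaves, the compound's emulsion, thinned with water to the intended dose, is poured on the water; grading follows after three weeks on the earlier criteria.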

Japanese bulrush [5] = experiment: Test Example 2: herbicidal activity, application during weed generation under submerged conditions (Table 17, symbol B); format: in vivo, Japanese bulrush (Schoenoplectus juncoides); settings: AAH 320 g/ha; application during weed generation, submerged conditions
How it was run: as §2

oval-leafed pondweed [6] = experiment: Test Example 2: herbicidal activity, application during weed generation under submerged conditions (Table 17, symbol C); format: in vivo, oval-leafed pondweed (Monochoria vaginalis); settings: AAH 320 g/ha; application during weed generation, submerged conditions
How it was run: as §2

barnyard grass [7] = experiment: Test Example 3: herbicidal effect by foliage application, Wagner pot (Table 18, symbol H); format: in vivo, barnyard grass (Echinochloa crus-galli); settings: for herbicidal effect on H: barnyard grass: amount of applied herbicide 320 g/ha
How it was run: (§3)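 Plants were sown in alluvial soil held under 0.1–0.5 cm standing water and grown 14 days in a greenhouse at 25–30 °C. An emulsifiable formulation, water-diluted to the set dose, was then sprayed onto the foliage, and effects were scored three weeks later using previously defined criteria.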

Chinese sprangletop = experiment: Test Example 3: herbicidal effect by foliage application, Wagner pot (Table 18, symbol D); format: in vivo, chinese sprangletop (Leptochloa chinensis); settings: for herbicidal effect on D: Chinese sprangletop: amount of applied herbicide 320 g/ha
How it was run: as §3

rice flat sedge = experiment: Test Example 3: herbicidal effect by foliage application, Wagner pot (Table 18, symbol E); format: in vivo, rice flat sedge (Cyperus iria); settings: for herbicidal effect on E: rice flat sedge: amount of applied herbicide 320 g/ha
How it was run: as §3

southern crabgrass [8] = experiment: Test Example 4: herbicidal effect by soil treatment (Table 19, symbol F); format: in vivo, southern crabgrass (Digitaria ciliaris); settings: amount of applied herbicide 320 g/ha
How it was run: (§4)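 Applied as a water-diluted emulsion, the compound was sprayed onto soil covering newly sown seeds. Evaluation came three weeks after application, in a greenhouse held at 25° C. to 30° C.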

green foxtail [9] = experiment: Test Example 4: herbicidal effect by soil treatment (Table 19, symbol G); format: in vivo, green foxtail (Setaria viridis); settings: amount of applied herbicide 320 g/ha
How it was run: as §4

barnyard grass [10] = experiment: Test Example 4: herbicidal effect by soil treatment (Table 19, symbol H); format: in vivo, barnyard grass (Echinochloa crus-galli); settings: amount of applied herbicide 320 g/ha
How it was run: as §4

velvetleaf [11] = experiment: Test Example 4: herbicidal effect by soil treatment (Table 19, symbol M); format: in vivo, velvetleaf (Abutilon theophrasti); settings: amount of applied herbicide 320 g/ha
How it was run: as §4

redroot pigweed [12] = experiment: Test Example 4: herbicidal effect by soil treatment (Table 19, symbol N); format: in vivo, redroot pigweed (Amaranthus retroflexus); settings: amount of applied herbicide 320 g/ha
How it was run: as §4

lambsquarters [13] = experiment: Test Example 4: herbicidal effect by soil treatment (Table 19, symbol O); format: in vivo, lambsquarters (Chenopodium album); settings: amount of applied herbicide 320 g/ha
How it was run: as §4

southern crabgrass [14] = experiment: Test Example 5: herbicidal effect by foliage application, plastic box (Table 20, symbol F); format: in vivo, southern crabgrass (Digitaria ciliaris); settings: foliage application, 320 g/ha, three weeks after application
How it was run: (§5)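 Sow seeds spot-wise in sterilized diluvial soil; cover with ~1.5 cm soil. Grow 14 days in greenhouse, 25° C. to 30° C. Spray foliage with emulsion diluted to predetermined amount. Rate effect after 3 weeks.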

green foxtail [15] = experiment: Test Example 5: herbicidal effect by foliage application, plastic box (Table 20, symbol G); format: in vivo, green foxtail (Setaria viridis); settings: foliage application, 320 g/ha, three weeks after application
How it was run: as §5

barnyard grass [16] = experiment: Test Example 5: herbicidal effect by foliage application, plastic box (Table 20, symbol H); format: in vivo, barnyard grass (Echinochloa crus-galli); settings: foliage application, 320 g/ha, three weeks after application
How it was run: as §5

velvetleaf [17] = experiment: Test Example 5: herbicidal effect by foliage application, plastic box (Table 20, symbol M); format: in vivo, velvetleaf (Abutilon theophrasti); settings: foliage application, 320 g/ha, three weeks after application
How it was run: as §5

redroot pigweed [18] = experiment: Test Example 5: herbicidal effect by foliage application, plastic box (Table 20, symbol N); format: in vivo, redroot pigweed (Amaranthus retroflexus); settings: foliage application, 320 g/ha, three weeks after application
How it was run: as §5

lambsquarters [19] = experiment: Test Example 5: herbicidal effect by foliage application, plastic box (Table 20, symbol O); format: in vivo, lambsquarters (Chenopodium album); settings: foliage application, 320 g/ha, three weeks after application
How it was run: as §5

wild oat = experiment: Test Example 5: herbicidal effect by foliage application, plastic box (Table 20, symbol I); format: in vivo, wild oat (Avena fatua); settings: foliage application, 320 g/ha, three weeks after application
How it was run: as §5

blackgrass = experiment: Test Example 5: herbicidal effect by foliage application, plastic box (Table 20, symbol J); format: in vivo, blackgrass (Alopecurus myosuroides); settings: foliage application, 320 g/ha, three weeks after application
How it was run: as §5

Italian ryegrass = experiment: Test Example 5: herbicidal effect by foliage application, plastic box (Table 20, symbol K); format: in vivo, Italian ryegrass (Lolium multiflorum); settings: foliage application, 320 g/ha, three weeks after application
How it was run: as §5

windgrass = experiment: Test Example 5: herbicidal effect by foliage application, plastic box (Table 20, symbol L); format: in vivo, windgrass (Apera spica-venti); settings: foliage application, 320 g/ha, three weeks after application
How it was run: as §5

persian speedwell = experiment: Test Example 5: herbicidal effect by foliage application, plastic box (Table 20, symbol R); format: in vivo, Persian speedwell (Veronica persica); settings: foliage application, 320 g/ha, three weeks after application
How it was run: as §5

| SMILES | Herbicidal effect, A: late watergrass (late watergrass [1]) | Herbicidal effect, B: Japanese bulrush (Japanese bulrush [2]) | Herbicidal effect, C: oval-leafed pondweed (oval-leafed pondweed [3]) | herbicidal effect rating, A: late watergrass (late watergrass [4]) | herbicidal effect rating, B: Japanese bulrush (Japanese bulrush [5]) | herbicidal effect rating, C: oval-leafed pondweed (oval-leafed pondweed [6]) | herbicidal effect on H: barnyard grass (barnyard grass [7]) | herbicidal effect on D: Chinese sprangletop (Chinese sprangletop) | herbicidal effect on E: rice flat sedge (rice flat sedge) | herbicidal effect, F: southern crabgrass (southern crabgrass [8]) | herbicidal effect, G: green foxtail (green foxtail [9]) | herbicidal effect, H: barnyard grass (barnyard grass [10]) | herbicidal effect, M: velvetleaf (velvetleaf [11]) | herbicidal effect, N: redroot pigweed (redroot pigweed [12]) | herbicidal effect, O: lambsquarters (lambsquarters [13]) | F: southern crabgrass, herbicidal effect grade (southern crabgrass [14]) | G: green foxtail, herbicidal effect grade (green foxtail [15]) | M: velvetleaf, herbicidal effect grade (velvetleaf [17]) | N: redroot pigweed, herbicidal effect grade (redroot pigweed [18]) | O: lambsquarters, herbicidal effect grade (lambsquarters [19]) | other results |
| --- | --- | --- | --- | --- | --- | --- | --- | --- | --- | --- | --- | --- | --- | --- | --- | --- | --- | --- | --- | --- | --- |
| COCCOc1ccc(-c2sc3ccc(F)cc3c2-c2c(O)c(Cl)nn(C)c2=O)cc1 [2-440] | 3 (Herbicidal rate of 40% or more and less than 70%) | 4 (Herbicidal rate of 70% or more and less than 90%) | 3 (Herbicidal rate of 40% or more and less than 70%) | 3 (Herbicidal rate of 40% or more and less than 70%) | 3 (Herbicidal rate of 40% or more and less than 70%) | 3 (Herbicidal rate of 40% or more and less than 70%) | 5 (Herbicidal rate of 90% or more (almost completely withered)) | 0 (Herbicidal rate of 5% or less (almost no effect)) | 0 (Herbicidal rate of 5% or less (almost no effect)) | 3 (Herbicidal rate of 40% or more and less than 70%) | 5 (Herbicidal rate of 90% or more (almost completely withered)) | 3 (Herbicidal rate of 40% or more and less than 70%) | 4 (Herbicidal rate of 70% or more and less than 90%) | 5 (Herbicidal rate of 90% or more (almost completely withered)) | 5 (Herbicidal rate of 90% or more (almost completely withered)) | 5 (Herbicidal rate of 90% or more (almost completely withered)) | 5 (Herbicidal rate of 90% or more (almost completely withered)) | 5 (Herbicidal rate of 90% or more (almost completely withered)) | 5 (Herbicidal rate of 90% or more (almost completely withered)) | 5 (Herbicidal rate of 90% or more (almost completely withered)) | H: barnyard grass, herbicidal effect grade (barnyard grass [16]): 5 (Herbicidal rate of 90% or more (almost completely withered)) |
| COc1ccc2sc(-c3ccc(Cl)cc3)c(-c3c(O)c(C)nn(C)c3=O)c2c1 [2-450] | 2 (Herbicidal rate of 20% or more and less than 40%) | 3 (Herbicidal rate of 40% or more and less than 70%) | 0 (Herbicidal rate of 5% or less (almost no effect)) | 3 (Herbicidal rate of 40% or more and less than 70%) | 2 (Herbicidal rate of 20% or more and less than 40%) | 0 (Herbicidal rate of 5% or less (almost no effect)) | 3 (Herbicidal rate of 40% or more and less than 70%) | 0 (Herbicidal rate of 5% or less (almost no effect)) | 5 (Herbicidal rate of 90% or more (almost completely withered)) | 0 (Herbicidal rate of 5% or less (almost no effect)) | 0 (Herbicidal rate of 5% or less (almost no effect)) | 0 (Herbicidal rate of 5% or less (almost no effect)) | 0 (Herbicidal rate of 5% or less (almost no effect)) | 3 (Herbicidal rate of 40% or more and less than 70%) | 2 (Herbicidal rate of 20% or more and less than 40%) | 0 (Herbicidal rate of 5% or less (almost no effect)) | 0 (Herbicidal rate of 5% or less (almost no effect)) | 5 (Herbicidal rate of 90% or more (almost completely withered)) | 5 (Herbicidal rate of 90% or more (almost completely withered)) | 5 (Herbicidal rate of 90% or more (almost completely withered)) |  |
| CCCC(=O)Oc1c(C)nn(C)c(=O)c1-c1c(-c2ccc(F)cc2OC)sc2cc(C)c(C)cc12 [5-102] | 4 (Herbicidal rate of 70% or more and less than 90%) | 3 (Herbicidal rate of 40% or more and less than 70%) | 2 (Herbicidal rate of 20% or more and less than 40%) | 3 (Herbicidal rate of 40% or more and less than 70%) | 3 (Herbicidal rate of 40% or more and less than 70%) | 2 (Herbicidal rate of 20% or more and less than 40%) |  |  |  |  |  |  |  |  |  |  |  |  |  |  | herbicidal effect on barnyard grass (H) (barnyard grass [7]; 320 g/ha): 4 (Herbicidal rate of 70% or more and less than 90%); herbicidal effect on Chinese sprangletop (D) (Chinese sprangletop; 320 g/ha): 4 (Herbicidal rate of 70% or more and less than 90%); herbicidal effect on rice flat sedge (E) (rice flat sedge; 320 g/ha): 3 (Herbicidal rate of 40% or more and less than 70%); herbicidal effect on southern crabgrass (F) (southern crabgrass [14]): 1 (Herbicidal rate of 5% or more and less than 20%); herbicidal effect on green foxtail (G) (green foxtail [15]): 0 (Herbicidal rate of 5% or less (almost no effect)); herbicidal effect on barnyard grass (H) (barnyard grass [16]): 1 (Herbicidal rate of 5% or more and less than 20%); herbicidal effect on wild oat (I) (wild oat): 0 (Herbicidal rate of 5% or less (almost no effect)); herbicidal effect on blackgrass (J) (blackgrass): 3 (Herbicidal rate of 40% or more and less than 70%); herbicidal effect on Italian ryegrass (K) (Italian ryegrass): 3 (Herbicidal rate of 40% or more and less than 70%); herbicidal effect on windgrass (L) (windgrass): 2 (Herbicidal rate of 20% or more and less than 40%); herbicidal effect on velvetleaf (M) (velvetleaf [17]): 3 (Herbicidal rate of 40% or more and less than 70%); herbicidal effect on lambsquarters (O) (lambsquarters [19]): 3 (Herbicidal rate of 40% or more and less than 70%); herbicidal effect on persian speedwell (R) (persian speedwell): 3 (Herbicidal rate of 40% or more and less than 70%) |
